Data set [1] has as its target T1, human NPY5 receptor (hY5R) (Homo sapiens, UniProt Q15761).
T1 sequence (Q15761 1-445): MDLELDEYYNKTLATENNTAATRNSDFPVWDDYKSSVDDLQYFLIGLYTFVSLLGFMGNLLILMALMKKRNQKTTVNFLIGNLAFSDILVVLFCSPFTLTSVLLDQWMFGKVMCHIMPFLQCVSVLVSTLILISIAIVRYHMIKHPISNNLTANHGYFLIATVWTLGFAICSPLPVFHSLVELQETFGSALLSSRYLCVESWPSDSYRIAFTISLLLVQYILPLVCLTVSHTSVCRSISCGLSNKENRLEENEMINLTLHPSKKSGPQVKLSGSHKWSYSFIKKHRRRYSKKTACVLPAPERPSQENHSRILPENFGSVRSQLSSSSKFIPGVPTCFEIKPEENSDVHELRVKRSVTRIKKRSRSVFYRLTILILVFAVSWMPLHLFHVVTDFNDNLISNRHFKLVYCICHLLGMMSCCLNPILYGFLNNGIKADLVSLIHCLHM
The experiment in a line: HTRF cAMP Gi assay, hY5R. A general note: TR-FRET usually uses a lanthanide donor and a delayed reading to cut background.

For data set [2], the target named is T2, human NPY4 receptor (hY4R) (Homo sapiens, UniProt P50391).
T2 construct: expressed in transfected cells; host or cells: CHO-K1
As to the kind of experiment: HTRF cAMP Gi assay, hY4R. The class given is cell-based. The settings on record: CHO-K1 cells.

Data set [3] has as its target T3, human NPY1 receptor (hY1R) (Homo sapiens, UniProt P25929).
T3 construct: expressed in transfected cells; host or cells: CHO-K1
T3 sequence (P25929 1-384): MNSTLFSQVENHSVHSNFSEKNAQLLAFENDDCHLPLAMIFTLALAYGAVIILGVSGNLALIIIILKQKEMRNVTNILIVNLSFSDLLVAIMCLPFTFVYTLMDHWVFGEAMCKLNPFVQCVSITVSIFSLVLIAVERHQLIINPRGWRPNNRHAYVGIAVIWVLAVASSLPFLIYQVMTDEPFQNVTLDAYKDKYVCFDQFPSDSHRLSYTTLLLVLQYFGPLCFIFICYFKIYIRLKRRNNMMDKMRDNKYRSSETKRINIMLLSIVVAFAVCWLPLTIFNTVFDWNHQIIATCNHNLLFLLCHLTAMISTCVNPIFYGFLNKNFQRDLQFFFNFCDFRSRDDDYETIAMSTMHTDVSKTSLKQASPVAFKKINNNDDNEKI
The experiment in a line: HTRF cAMP Gi assay, hY1R. The class given is cell-based. The settings on record: CHO-K1 cells.
Protocol: Briefly, the production of intracellular cAMP will generate a competition between unlabeled cAMP and exogenously added d2-cAMP for anti-cAMP antibodies conjugated to cryptate. CHO-K1 cells stably expressing the human NPY1, NPY2, NPY4 and NPY5 receptors were used with the cells brought to life from a frozen stock immediately before assay performance. 2000 cells per well were applied for all four NPY receptor subtype assays. A 384-well format was used applying a total volume of 20 μl using 5 μl cells, 2.5 μl peptide agonist, 2.5 μl forskolin and 5 μl of each of the fluorophores. […] Concentration-response evaluation of compounds was performed with 11 concentrations of agonist peptides (covering 3 decades). EC50 values were calculated by nonlinear regression using sigmoid concentration-response with variable slope.

Data set [4] can be described thus: Solubility determination. The settings on record: for Sol6: pH 6; for Sol7: pH 7. A digest of the protocol:
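Sample: TFA-salt peptide at 10 mg/ml target in 0.1 M Na diphosphate, pH 6.4 or 7.0, shaken 2 h RT, filtered, diluted to 1 mg/ml.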

Data set [5] concerns the target T4, Human Neuropeptide Y2 Receptor (Homo sapiens, UniProt P49146).
T4 construct: purchased CHEMICON HTS066M
T4 sequence (P49146 1-381): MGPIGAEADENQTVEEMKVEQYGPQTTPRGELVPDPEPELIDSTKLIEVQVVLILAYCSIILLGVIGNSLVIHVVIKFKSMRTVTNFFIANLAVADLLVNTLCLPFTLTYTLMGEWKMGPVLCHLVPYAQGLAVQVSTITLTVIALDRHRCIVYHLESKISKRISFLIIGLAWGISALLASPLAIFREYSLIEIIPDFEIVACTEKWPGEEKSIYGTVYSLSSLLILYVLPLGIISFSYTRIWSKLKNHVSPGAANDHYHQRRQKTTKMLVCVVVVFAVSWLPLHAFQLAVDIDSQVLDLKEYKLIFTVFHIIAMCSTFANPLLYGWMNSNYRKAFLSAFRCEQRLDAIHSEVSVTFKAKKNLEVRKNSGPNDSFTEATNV
The experiment in a line: Activity (RLB binding) after incubation in solutions at different pH values. How it is done: The filtration RLB assay was carried out in 96-well plates in a final volume of 100 μl per well. Freeze-dried test peptides were dissolved in 100% dimethyl sulfoxide (DMSO) to stock solutions of 1 mM and serial dilutions were performed in assay buffer (50 mM HEPES, 5 mM MgCl2, 1 mM CaCl2, pH 7.4) containing 0.2% ovalbumin. […] Next, 80 μL membranes (HTS066M, ChemiSCREEN™ Human Neuropeptide Y2 Receptor Membrane Preparation, CHEMICON) were added to each well to give a final protein concentration of 0.5 μg/well. The plates were sealed and incubated at room temperature for 2 hours in a plate shaker set at 400 rpm. The incubation was stopped by vacuum filtration onto 0.5% polyethylene amine (PE) presoaked GF/C filters using a 96-well FilterMate™ harvester (Perkin Elmer) followed by four washes with 300 μl/well ice-cold wash buffer (50 mM HEPES, 500 mM NaCl, pH7.4). Filter plates were then dried for 60 min at room temperature and the bottom of the plates was sealed with backing tape UniFilter-96. Finally, 50 μl/well scintillation counter cocktail (Microscint20, Packard) was added and the radioactivity was counted in the Packard TopCount NXT scintillation counter. IC50 values (the half maximal inhibitory concentration of the agonist) were calculated by nonlinear regression analysis of sigmoidal dose-response curves.
The peptide was (partially) dissolved by shaking the filter unit horizontally at approx. 400 rpm for 2 hours at room temperature. The sample was filtered to remove any insoluble particles.

Data set [6] concerns the target T4, Human Neuropeptide Y2 Receptor. As to the kind of experiment: Radioligand binding competition assay (RLB). In outline:
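Peptides were serially diluted from 1 mM DMSO stocks and competed for radioligand binding to receptor membranes (0.5 μg/well) over 2 h at room temperature, pH 7.4 HEPES buffer. Bound radioactivity on filters was counted by scintillation, and IC50 was derived by nonlinear regression.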

Data set [7] addresses T5, human NPY2 receptor (hY2R) (Homo sapiens, UniProt P49146).
T5 sequence (P49146 1-381): T4 sequence (P49146 1-381)
The experiment in a line: HTRF cAMP Gi assay, hY2R.
Description: The Homogenous Time Resolved fluorescence (HTRF) technology optimized for Gi coupled receptors has thoroughly been described in Cisbio cAMP Gi kit manual. Briefly, the production of intracellular cAMP will generate a competition between unlabeled cAMP and exogenously added d2-cAMP for anti-cAMP antibodies conjugated to cryptate. CHO-K1 cells stably expressing the human NPY1, NPY2, NPY4 and NPY5 receptors were used with the cells brought to life from a frozen stock immediately before assay performance. 2000 cells per well were applied for all four NPY receptor subtype assays. A 384-well format was used applying a total volume of 20 μl using 5 μl cells, 2.5 μl peptide agonist, 2.5 μl forskolin and 5 μl of each of the fluorophores. […] Concentration-response evaluation of compounds was performed with 11 concentrations of agonist peptides (covering 3 decades). EC50 values were calculated by nonlinear regression using sigmoid concentration-response with variable slope.

[8] abbreviates: apparent Ki of filtrate after incubation at pH7.1-7.2, assumed 10 mg/ml, read-out: RLB 7 (pH7.1-7.2).
Setting [9] is: apparent Ki of filtrate after incubation at pH8.1-8.2, assumed 10 mg/ml, read-out: RLB 8 (pH8.1-8.2).
Setting [10] is: Table 3, 125I-PYY(1-36) competition, read-out: Ki.

As a reminder, the EC50 is the midpoint of the concentration-response curve. Read a low EC50 as higher potency in that assay.

Where only a bound is given, the exact number is not on record here.

T2 sequence (P50391 whole entry): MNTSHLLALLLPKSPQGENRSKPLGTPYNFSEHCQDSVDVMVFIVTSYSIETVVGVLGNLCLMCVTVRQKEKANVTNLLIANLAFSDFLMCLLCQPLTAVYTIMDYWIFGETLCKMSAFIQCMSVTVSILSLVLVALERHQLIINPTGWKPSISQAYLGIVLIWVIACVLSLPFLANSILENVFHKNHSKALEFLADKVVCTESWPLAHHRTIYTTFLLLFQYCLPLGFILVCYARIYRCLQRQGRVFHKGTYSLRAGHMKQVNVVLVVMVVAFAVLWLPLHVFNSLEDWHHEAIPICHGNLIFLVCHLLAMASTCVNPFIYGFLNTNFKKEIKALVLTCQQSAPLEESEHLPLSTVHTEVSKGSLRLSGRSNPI

Regarding `CC[C@H](C)[C@H](NC(=O)[C@H](CCC(=O)O)NC(=O)[C@H](CCC(=O)O)NC(=O)[C@@H]1CCCN1C(=O)[C@@H](NC(=O)[C@H](C)NC(=O)[C@H](CC(=O)O)NC(=O)[C@H](CCC(=O)O)NC(=O)[C@H](CCC(=O)O)NC(=O)[C@@H]1CCCN1C(=O)[C@H](CCCCNC(=O)CCCCCNC(=O)CC[C@H](NC(=O)CCCCCCCCCCCCCCCCC(=O)O)C(=O)O)NC(=O)[C@H](CCC(=O)O)NC(=O)[C@@H]1CCCN1C(=O)[C@H](C)NC(=O)CC(C)C)[C@@H](C)O)C(=O)N[C@@H](CCC(N)=O)C(=O)N[C@@H](CCCNC(=N)N)C(=O)N[C@@H](Cc1ccc(O)cc1)C(=O)N[C@@H](Cc1ccc(O)cc1)C(=O)N[C@H](C(=O)N[C@@H](CO)C(=O)N[C@@H](CC(C)C)C(=O)N[C@@H](CCCNC(=N)N)C(=O)N[C@@H](Cc1c[nH]cn1)C(=O)N[C@@H](Cc1ccc(O)cc1)C(=O)N[C@@H](Cc1ccc(O)cc1)C(=O)N[C@@H](CC(N)=O)C(=O)N[C@@H](Cc1c[nH]c2ccccc12)C(=O)N[C@@H](CC(C)C)C(=O)N[C@H](C(=O)N[C@@H](CCCNC(=N)N)C(=O)N[C@@H](CCC(N)=O)C(=O)N[C@@H](CCCNC(=N)N)C(=O)N[C@@H](Cc1ccc(O)cc1)C(N)=O)[C@@H](C)O)C(C)C` [Compound 176, N{alpha-4}-(3-methylbutanoyl)-N{epsilon-7}-(6-[(4S)-4-carboxy-4-(17-carboxyheptadecanamido)butanamido]hexanoyl)-[4A,7K,9E,13T,17I,18Q,22V,28Y,30W,31L]-hPYY(4-36)], the concentration for a half-maximal effect (EC50) in data set [1], in data set [2] and in data set [3] was over 5000 nM each time. For the same compound, the “Sol6” value in data set [4] is 9.4 mg/mL. In data set [4], the “Sol7” value stood at 9.3 mg/mL. The Ki amounted to 3.9 nM in data set [5] (apparent Ki of filtrate after incubation at pH6.1-6.2, assumed 10 mg/ml, read-out: RLB 6 (pH6.1-6.2)); 4 nM in data set [5] (setting [8]); 5.7 nM in data set [5] (setting [9]); 1.48 nM in data set [6] (setting [10]); 8.7 nM in data set [6] (Table 8, DMSO stock, read-out: hY2R RLB Ki (nM) DMSO).
On to `CC[C@H](C)[C@H](NC(=O)[C@H](Cc1ccc(O)cc1)NC(=O)[C@H](Cc1ccc(O)cc1)NC(=O)[C@H](CCCNC(=N)N)NC(=O)[C@H](CCC(N)=O)NC(=O)[C@@H](NC(=O)[C@H](CCC(=O)O)NC(=O)[C@H](CCC(=O)O)NC(=O)[C@@H]1CCCN1C(=O)[C@H](CO)NC(=O)[C@H](C)NC(=O)[C@H](CC(=O)O)NC(=O)[C@H](C)NC(=O)[C@H](CCC(=O)O)NC(=O)[C@@H]1CCCN1C(=O)[C@H](CCCCNC(=O)CCCCCNC(=O)CC[C@H](NC(=O)CCCCCCCCCCCCCCCCC(=O)O)C(=O)O)NC(=O)[C@H](CCC(=O)O)NC(=O)[C@@H]1CCCN1C(=O)[C@H](C)NC(=O)CC(C)C)[C@@H](C)CC)C(=O)N[C@@H](C)C(=O)N[C@@H](CC(C)C)C(=O)N[C@@H](CCCNC(=N)N)C(=O)N[C@@H](Cc1c[nH]cn1)C(=O)N[C@@H](Cc1ccc(O)cc1)C(=O)N[C@@H](Cc1ccc(O)cc1)C(=O)N[C@@H](CC(N)=O)C(=O)N[C@@H](Cc1c[nH]c2ccccc12)C(=O)N[C@@H](CC(C)C)C(=O)N[C@H](C(=O)N[C@@H](CCCNC(=N)N)C(=O)N[C@@H](CCC(N)=O)C(=O)N[C@@H](CCCNC(=N)N)C(=O)N[C@@H](Cc1ccc(O)cc1)C(N)=O)[C@@H](C)O` [Compound 40, N{alpha-4}-(3-methylbutanoyl)-N{epsilon-7}-(6-[(4S)-4-carboxy-4-(17-carboxyheptadecanamido)butanamido]hexanoyl)[4A,7K,9E,10A,17I,18Q,22I,23A,28Y,30W,31L]-hPYY(4-36)], for which the concentration for a half-maximal effect (EC50) in data set [1], in data set [2] and in data set [3] was over 5000 nM in each case. Moreover, the “Sol6” value in data set [4] is 8.5 mg/mL. Also, the “Sol7” value in data set [4] was found to be 8.2 mg/mL. The results for the Ki in data set [5] (setting [8]) and in data set [5] (setting [9]) were 7.3 nM and 3.8 nM, respectively.
Turning to `CC(C)CC(=O)N[C@@H](C)C(=O)N1CCC[C@H]1C(=O)N[C@@H](CCC(=O)O)C(=O)N[C@@H](CCCCNC(=O)CCCCCNC(=O)CC[C@H](NC(=O)CCCCCCCCCCCCCCCCC(=O)O)C(=O)O)C(=O)N1CCC[C@H]1C(=O)N[C@@H](CCC(=O)O)C(=O)N[C@@H](C)C(=O)N[C@@H](CC(=O)O)C(=O)N[C@@H](C)C(=O)N[C@@H](CO)C(=O)N1CCC[C@H]1C(=O)N[C@@H](CCC(=O)O)C(=O)N[C@@H](CCC(=O)O)C(=O)N[C@@H](CC(C)C)C(=O)N[C@@H](CCC(N)=O)C(=O)N[C@@H](CCCNC(=N)N)C(=O)N[C@@H](Cc1ccc(O)cc1)C(=O)N[C@@H](Cc1ccc(O)cc1)C(=O)N[C@H](C(=O)N[C@@H](C)C(=O)N[C@@H](CC(C)C)C(=O)N[C@@H](CCCNC(=N)N)C(=O)N[C@@H](Cc1c[nH]cn1)C(=O)N[C@@H](Cc1ccc(O)cc1)C(=O)N[C@@H](Cc1ccc(O)cc1)C(=O)N[C@@H](CC(N)=O)C(=O)N[C@@H](Cc1c[nH]c2ccccc12)C(=O)N[C@@H](CC(C)C)C(=O)N[C@H](C(=O)N[C@@H](CCCNC(=N)N)C(=O)N[C@@H](CCC(N)=O)C(=O)N[C@@H](CCCNC(=N)N)C(=O)N[C@@H](Cc1ccc(O)cc1)C(N)=O)[C@@H](C)O)C(C)C` [Compound 163, N{alpha-4}-(3-methylbutanoyl)-N{epsilon-7}-(6-[(4S)-4-carboxy-4-(17-carboxyheptadecanamido)butanamido]hexanoyl)-[4A,7K,9E,10A,18Q,22V,23A,28Y,30W,31L]-hPYY(4-36)], the EC50 in data set [1] is over 5000 nM; in data set [2], over 5000 nM; in data set [3], over 5000 nM; in data set [7], 0.13 nM. For the same compound, in data set [4], the “Sol6” value came out at 8.9 mg/mL. Besides, the “Sol7” value in data set [4] was found to be 9.2 mg/mL. Further, the Ki in data set [5] (setting [9]) came to 4.9 nM; in data set [6] (setting [10]), 0.67 nM.
